Values quoted from earlier work as cited in patent publication US20080131879A1, “Detection of Subjects at Risk For Chd By a Genotype Evaluation Associated With Serum Plant Sterols Enabling Individualized (Drug) Treatment on Demand” (University Van Maastricht, priority 2004, published 2008).

Settings: intestinal absorption from diet

Structure (SMILES)	Absorption
CC(C)[C@H](C)CC[C@@H](C)[C@H]1CC[C@H]2[C@@H]3CC=C4C[C@@H](O)CC[C@]4(C)[C@H]3CC[C@]12C [campesterol]	1.89%
CC[C@H](CC[C@@H](C)[C@H]1CC[C@H]2[C@@H]3CC=C4C[C@@H](O)CC[C@]4(C)[C@H]3CC[C@]12C)C(C)C [sitosterol]	0.51%
